# In patent US9309238B2, “Imidazo [1,2-a]pyridine compounds, synthesis thereof, and methods of using same” (priority 2009, dated 2016):
# Where two headings read alike, the source gives them in different places.
# Columns and labels:
# Experiment in all cases: microbe, parasite or virus in culture
# [1] = tested on: rINH (Isoniazid-resistant TB strain); type: cell-based, Mycobacterium tuberculosis
# [2] = tested on: rSM (Streptomycin-resistant TB strain); type: cell-based, Mycobacterium tuberculosis
# [3] = tested on: rRMP (Rifampicin-resistant TB strain); type: cell-based, Mycobacterium tuberculosis
# [4] = tested on: rKM (Kanamycin-resistant TB strain); type: cell-based, Mycobacterium tuberculosis
# [5] = tested on: MDR-TB strain resistant to HRERb* (column 5); type: cell-based; settings: Mycobacterium tuberculosis
# [6] = tested on: MDR-TB strain resistant to HREZSP; type: cell-based; settings: Mycobacterium tuberculosis
# [7] = tested on: MDR-TB strain resistant to HREZSKPTh; type: cell-based; settings: Mycobacterium tuberculosis
# [8] = tested on: MDR-TB strain resistant to HCPTh; type: cell-based; settings: Mycobacterium tuberculosis
# [9] = tested on: extreme drug-resistant TB strain HRESPO; type: cell-based; settings: Mycobacterium tuberculosis
# [10] = tested on: MDR-TB strain resistant to HRERb* (column 8); type: cell-based; settings: Mycobacterium tuberculosis
# [11] = tested on: MDR-TB strain resistant to HRESP; type: cell-based; settings: Mycobacterium tuberculosis
# [12] = tested on: MDR-TB strain resistant to HREKP; type: cell-based; settings: Mycobacterium tuberculosis
# [13] = tested on: extreme drug-resistant TB strain HREPKOTh; type: cell-based; settings: Mycobacterium tuberculosis
# [14] = tested on: MDR-TB strain resistant to HREZRbTh; type: cell-based; settings: Mycobacterium tuberculosis
# [15] = tested on: MDR-TB strain resistant to HRERb* (column 7); type: cell-based; settings: Mycobacterium tuberculosis
# [16] = tested on: extreme drug-resistant TB strain HRESPOCTh; type: cell-based; settings: Mycobacterium tuberculosis
# [17] = single drug resistant strain rINH
# [18] = single drug resistant strain rRMP
# [19] = single drug resistant strain rKM
structure (smiles),measurement,setting,value
Cc1ccn2c(C(=O)NCc3cccc(OC(C)C)c3)c(C)nc2c1 [ND-9872],MIC90,[1]; [17],0.28 µM
same,MIC90,[2],0.87 µM
same,MIC90,[3]; [18],0.23 µM
same,MIC90,[4]; [19],0.89 µM
"NNC(=O)c1ccncc1 [INH, Isoniazid, reference compound]",MIC90,[1]; Mycobacterium tuberculosis,> 8 µM
same,MIC90,[3]; Mycobacterium tuberculosis,0.23 µM
"Cc1ccn2c(C(=O)NCc3ccccc3)c(C)nc2c1 [ND-8454, N-benzyl-2,7-dimethylimidazo[1,2-a]pyridine-3-carboxamide]",MIC90,[5],0.039 µg/mL
same,MIC90,[6],0.312 µg/mL
same,MIC90,[7],0.019 µg/mL
same,MIC90,[1]; Mycobacterium tuberculosis,0.33 µM
same,MIC90,[8],0.313 µg/mL
same,MIC90,[9],0.039 µg/mL
same,MIC90,[10],0.078 µg/mL
same,MIC90,[11],0.625 µg/mL
same,MIC90,[12],0.078 µg/mL
same,MIC90,[2]; Mycobacterium tuberculosis,1.02 µM
same,MIC90,[13],0.02 µg/mL
same,MIC90,[14],0.039 µg/mL
same,MIC90,[3]; Mycobacterium tuberculosis,0.28 µM
same,MIC90,[15],0.039 µg/mL
same,MIC90,[4]; Mycobacterium tuberculosis,1.07 µM
same,MIC90,[16],0.02 µg/mL
"COc1c(N2C[C@@H]3CCCN[C@@H]3C2)c(F)cc2c(=O)c(C(=O)O)cn(C3CC3)c12 [Moxifloxacin, reference compound]",MIC90,[1]; Mycobacterium tuberculosis,0.12 µM
same,MIC90,[2]; Mycobacterium tuberculosis,0.15 µM
same,MIC90,[3]; Mycobacterium tuberculosis,0.1 µM
same,MIC90,[4]; Mycobacterium tuberculosis,0.24 µM
Cc1ccn2c(C(=O)NCc3ncc(C(F)(F)F)cc3Cl)c(C)nc2c1 [ND-9902],MIC90,[1]; [17],1.10 µM
same,MIC90,[2],2.95 µM
same,MIC90,[3]; [18],0.74 µM
same,MIC90,[4]; [19],2.96 µM
Cc1ccn2c(C(=O)NCc3cccc(F)c3)c(C)nc2c1 [ND-9361],MIC90,[5],0.039 µg/mL
same,MIC90,[6],0.019 µg/mL
same,MIC90,[7],0.019 µg/mL
same,MIC90,[9],0.01 µg/mL
same,MIC90,[10],0.078 µg/mL
same,MIC90,[11],0.078 µg/mL
same,MIC90,[12],0.078 µg/mL
same,MIC90,[13],0.01 µg/mL
same,MIC90,[14],0.019 µg/mL
same,MIC90,[15],0.01 µg/mL
same,MIC90,[16],0.02 µg/mL
Cc1ccc2nc(C)c(C(=O)NCc3ccc(S(C)(=O)=O)cc3)n2c1 [ND-9965],MIC90,[1]; [17],0.57 µM
same,MIC90,[2],2.31 µM
same,MIC90,[3]; [18],0.54 µM
same,MIC90,[4]; [19],1.98 µM
Cc1ccn2c(C(=O)NCc3ccc(Oc4ccc(F)cc4)cc3)c(C)nc2c1 [ND-9758],MIC90,[1]; [17],0.003 µM
same,MIC90,[2],0.01 µM
same,MIC90,[3]; [18],<0.002 µM
same,MIC90,[4]; [19],0.01 µM
"CO[C@H]1/C=C/O[C@@]2(C)Oc3c(C)c(O)c4c(O)c(c(/C=N/N5CCN(C)CC5)c(O)c4c3C2=O)NC(=O)/C(C)=C\C=C\[C@H](C)[C@H](O)[C@@H](C)[C@@H](O)[C@@H](C)[C@H](OC(C)=O)[C@@H]1C [RMP, Rifampicin, reference compound]",MIC90,[1]; Mycobacterium tuberculosis,0.01 µM
same,MIC90,[3]; Mycobacterium tuberculosis,> 1 µM
